Literature values, collected in patent publication US20030203963A1, “Antimicrobial agent” (priority 2001, published 2003).

Legend:
Conditions in all cases: cited from earlier work
[1] = system: Salmonella
[2] = system: bacteria
[3] = system: yeasts and moulds as well as catalase-positive bacteria
[4] = system: aerobic, Gram-negative bacteria
[5] = system: Gram-positive bacteria, yeasts, and moulds

## O=NO [nitrite]
[1]; meat products
  Concentration at which Salmonella is inhibited: > 1,000 ppm

## Propionic Acid and Propionate
[2]
  Concentrations necessary for inhibition of bacteria: > 16000 ppm

## C/C=C/C=C/C(=O)O [Sorbic Acid]
[3]
  Effective concentration: 500-3000 ppm

## Nisin
[1]; in food
  Inhibition of Salmonella: unable to inhibit

## O=S=O [Sulphur Dioxide]
[4]
  Effective concentrations for inhibition: 250-500 ppm
[5]
  Effective concentrations: 800-2000 ppm
